Data taken from patent publication US10772890B2, “Use of myeloperoxidase (MPO) inhibitors or pharmaceutically acceptable salts thereof to treat multiple system atrophy (MSA) 938” (ASTRAZENECA AB, priority 2007, dated 2020).

Legend:
Format in all cases: in vivo
MSA mice (tg+3NP) [1] = assay: Stride length test in MSA mouse model; settings: high dose 180 μmol/kg p.o. twice daily, FIG. 3
Procedure: (§1) A total of 30 (PLP)-α-synuclein transgenic mice were used. Animals were housed at 12/12 hours dark/light cycle with free access to food and water in the animal facility of the Innsbruck Medical University. All experiments were performed in accordance with the Austrian law and after permission for animal experiments of the Federal Ministry for Education, Science, and Culture of Austria.
(§2) Low dose group (n=10) MSA mice (tg+3NP) treated with 1-(2-Isopropoxyethyl)-2-thioxo-1,2,3,5-tetrahydro-pyrrolo[3,2-d]pyrimidin-4-one (Compound I; prepared by AstraZeneca), 2×6 μmol/kg p.o.
(§3) High dose group (n=10) MSA mice (tg+3NP) treated with Compound I (prepared by AstraZeneca), 2×180 μmol/kg, p.o.
(§4) 1-(2-Isopropoxyethyl)-2-thioxo-1,2,3,5-tetrahydro-pyrrolo[3,2-d]pyrimidin-4-one (Compound I treatment) was started one week prior to the first 3NP intoxication and stopped three weeks after the first 3NP intoxication (see 3NP intoxication protocol below). […]
The stride length of the forelimbs and hindlimbs of the mice was measured after a habituation to the test for 3 days before its performance according to Fernagut et al. (Fernagut P O. et al. Neuroscience. 2002; 114:1005-17) with slight modification. […] After three runs, the stride length of the hindlimbs on each side was measured, excluding the beginning (7 cm) and the end (7 cm) of the run. The mean stride length for each limb was determined.

MSA mice (tg+3NP) [2] = assay: Microglial activation (optical density) in substantia nigra and striatum of MSA mice; settings: high dose 180 μmol/kg p.o. twice daily, FIG. 6
Procedure: as §1, §2, §3, §4
(§5) Stereology was applied using a computer-assisted image analysis system (Nikon E-800 microscope, CCD video camera, Optronics MicroFire, Goleta, USA; Stereo Investigator Software, MicroBrightField Europe e.K., Magdeburg, Germany). […] Purkinje cells were counted in a region outlined to include only the Purkinje cell layer as previously reported (German D C. et al. Neuroscience. 2001; 105:999-1005). All data were expressed as mean value±SEM. […]

MSA mice (tg+3NP) [3] = assay: Motor clinical scale evaluation in MSA mouse model; settings: p.o. twice daily, compared to vehicle treated mice, FIG. 1
Excerpt: A novel mouse model of MSA has been developed by inducing oxidative stress in transgenic mice with oligodendroglial α-synuclein expression (described herein). This model reproduces the cardinal neuropathological features of the disease including striatonigral degeneration (SND), olivopontocerebellar atrophy (OPCA), astrogliosis and microgliosis combined with oligodendroglial insoluble α-synuclein inclusions. Mitochondrial inhibition by 3NP in the presence of glial cytoplasmic inclusions in transgenic mice induces a selective neuronal cell death pattern typical for MSA in these animals (Stefanova N. et al. Am. J. Pathol. 2005; 166:869-76).
Thus, in the present invention, MPO inhibitors have been use to suppress MPO activity in an MSA mouse model consisting of an oligodendroglial α-SYN overexpression in transgenic mice exposed to mitochondrial inhibition by 3-nitropropionic acid (3NP). The effects were followed by application of established immunohistological and behavioral methods to evaluate the participation of MPO in the pathogenesis of MSA and the possible neuroprotective effects of in an MSA model.
A total of 30 (PLP)-α-synuclein transgenic mice were used. Animals were housed at 12/12 hours dark/light cycle with free access to food and water in the animal facility of the Innsbruck Medical University. […]

MSA mice (tg+3NP) [4] = assay: Open field activity (Flex Field Activity System) in MSA mouse model; settings: high dose 180 μmol/kg p.o. twice daily, FIG. 2
Procedure: as §1, §2, §3
1-(2-Isopropoxyethyl)-2-thioxo-1,2,3,5-tetrahydro-pyrrolo[3,2-d]pyrimidin-4-one (Compound I treatment) was started one week prior to the first 3NP intoxication and stopped three weeks after the first 3NP intoxication (see 3NP intoxication protocol below). Animals underwent behavioral tests during week 3-4 after the beginning of the experiment. On day 28 animals were perfused under deep thiopental anesthesia and the brains were collected for histopathological analysis of neuronal loss and gliosis. […]

MSA mice (tg+3NP) [5] = assay: Neuropathology: immunohistochemistry and stereological neuron counts in MSA mouse model
Procedure: as §1, §2, §3
1-(2-Isopropoxyethyl)-2-thioxo-1,2,3,5-tetrahydro-pyrrolo[3,2-d]pyrimidin-4-one (Compound I treatment) was started one week prior to the first 3NP intoxication and stopped three weeks after the first 3NP intoxication (see 3NP intoxication protocol below). Animals underwent behavioral tests during week 3-4 after the beginning of the experiment. On day 28 animals were perfused under deep thiopental anesthesia and the brains were collected for histopathological analysis of neuronal loss and gliosis.
Mice were intoxicated chronically with 3NP with slowly increasing doses of toxin according to a previously used scheme (i.e. 4×10 mg/kg, 4×20 mg/kg, 4×40 mg/kg, 4×50 mg/kg intraperitoneal injections every 12th hour for a period of 8 days) to model MSA (Stefanova N. et al. Am. J. Pathol. 2005; 166:869-76)
The drug and vehicle (0.1 mol/L meglumine with 20% w/v hydroxypropyl-β-cyclodextrin, pH 10.8) were stored at 4° C. […]
as §5

With `CC(C)OCCn1c(=S)[nH]c(=O)c2[nH]ccc21` [Compound I, 1-(2-Isopropoxyethyl)-2-thioxo-1,2,3,5-tetrahydro-pyrrolo[3,2-d]pyrimidin-4-one] the “stride length test performance (left and right hindlimbs)” value (MSA mice (tg+3NP) [1]) was “significant improvement”, the “microglial activation in substantia nigra and striatum” value (MSA mice (tg+3NP) [2]) was “suppression of microglial activation” and the “mean daily motor score” value (MSA mice (tg+3NP) [3]) was “significant improvement”. For the same molecule, the “flex field performance (rearing and open field activity)” value (MSA mice (tg+3NP) [4]) was “significant improvement”, the “striatonigral degeneration (TH immunopositive cells in substantia nigra, dopaminergic terminals in striatum, striatal DARPP-32 immunoreactive neurons)” value (MSA mice (tg+3NP) [5]; high dose 180 μmol/kg p.o. twice daily, FIG. 4) was “neuroprotective” and the “olivopontocerebellar atrophy (inferior olivary complex, pontine nuclei, Purkinje cells in the cerebellum)” value (MSA mice (tg+3NP) [5]; high dose 180 μmol/kg p.o. twice daily, FIG. 5) was “neuroprotective”. The “neuroprotection (neurons preserved in substantia nigra pars compacta, striatum, cerebellar cortex, pontine nuclei, inferior olivary complex)” value (MSA mice (tg+3NP) [5]; summary of findings, dose not stated) was “significant neuroprotection”.
